Experimental data published in US12358904B2, “Inhibitors of TYK2” (Atomwise Inc., priority 2023, dated 2025).
pIC50: −log10 of the molar value.

Columns and labels:
[1] = target: T1, TYK2-JH2 (Homo sapiens, UniProt P29597); assay: TYK2-JH2 HTRF binding assay (ligand efficiency); settings: calculated from IC50 of the TYK-JH2 binding assay (Equation 1)
T1 construct: TYK JH2 enzyme mix (ChemPartnec CP20210818A-BV); purchased ChemPartner CP20210818A-BV
Protocol: The following example describes the TYK2-JH2 HTRF binding assay used to determine the ligand efficiency of the TYK2 inhibitors.
To calculate ligand efficiency, Equation 1 is applied:
[formula] in which IC50 comes from the binding assay used to determine compound potency.
TYK JH2 enzyme mix (ChemPartnec CP20210818A-BV), tracer (ChemPartnec CP-0029472-051) and mAb Anti-6HIS Tb cryptate Gold (Cisbio: Cat No. 61H12TLA) mix were prepared in assay buffer (10 mM MgCl2, 20 mM HEPES pH 7.5, 0.01% Triton X-100, 1 mM DTT). Compounds diluted in DMSO (Final Concentrations 0.1 to 0.000005 [μM]) and enzyme mix (0.5 nM Final Concentration) were added to 384 well plates, briefly centrifuged and incubated at room temperature for 10 minutes. After incubation, tracer mix (Tracer-35 nM final concentration); (Mab Anti-6HIS Tb cryptate Gold-0.5× final)) was added, briefly centrifuged then incubate at room temperature 60 minutes. After incubation, plates were read by Envision TR-FRET (Ex340/Em495/520) protocol (PerkinElmer-Envision 2104 multilabel plate reader).

[2] = test system: IL-12/pSTAT4; assay: IL-12 induced pSTAT4 assay in NK-92 cells; type: cell-based; settings: Homo sapiens, NK92, IL-12 stimulation, read-out: Cellular potency (IL-12/pSTAT4)
Protocol: The following example describes the IL-12 induced pSTAT4 assay used to determine the cellular potency (IL-12/pSTAT4) of the TYK2 inhibitors.
NK-92 cells (human natural killer lymphoma cell line) were cultured in MEM α, nucleosides (Life Technologies, 22571020) 12.5% heat inactivated FBS (Dominique Dutscher, S1810), 12.5% heat inactivated Horse serum (Life Technologies, 26050088) and 1% Penicillin-Streptomycin (Life Technologies, 15140122), 5 ng/mL human IL-2 (R&D systems, 202-II/CF), 0.2 mM inositol (Sigma, PHR1351 lot LRAC4118), 0.1 mM β-mercaptoethanol (Life Technologies, 31350010), and 0.02 mM folic acid (Sigma, F8758).
NK-92 cells were starved overnight in starvation medium (Opti-MEM (ThermoFisher, 11058-021), 10% charcoal stripped FBS (ThermoFisher 12676-029), and 1% Penicillin (100U/ml)-Streptomycin (100 μg/ml) (ThermoFisher, ref 15140122)), then plated in a 96-well tissue culture plate (20K cells/well) prior to pre-incubation with test compounds (Final Concentration [nM] 1000 to 0.05) for 30 minutes at 37° C. Cells were stimulated with IL-12 (Final Concentration l0 ng/ml) for 30 minutes at 37° C., and terminated by addition of lysis buffer (MSD K150PAD-2). pSTAT4 (Tyr693) was detected using the Mesa Scale Discovery platform (MSD K150PAD-2), according to manufacturer's instruction. Briefly, cell lysates were added to pre-blocked plates and incubated for 1 hour at room temperature. Plates were washed and incubated with detection antibody for 1 hour at room temperature. Plates were washed and Read Buffer was added prior to measurement on the MSD (1300 MSD Quickplex SQ 120).

T1 sequence (P29597 589-875 limits assumed): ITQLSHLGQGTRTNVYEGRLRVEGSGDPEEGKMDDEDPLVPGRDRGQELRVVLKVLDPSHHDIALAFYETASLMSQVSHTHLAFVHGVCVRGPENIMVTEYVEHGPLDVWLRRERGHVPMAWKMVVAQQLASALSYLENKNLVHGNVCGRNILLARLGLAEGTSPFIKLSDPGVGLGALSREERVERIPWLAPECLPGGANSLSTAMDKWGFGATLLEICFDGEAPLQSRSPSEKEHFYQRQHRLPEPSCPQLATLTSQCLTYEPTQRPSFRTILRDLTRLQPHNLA

SMILES | Ligand Efficiency [1] | pIC50 [2]
CS(=O)(=O)c1ccccc1Nc1cc(Nc2ccc(C3(NC4COC4)CC3)cn2)ncn1 [Compound 41, N^4-(2-(methylsulfonyl)phenyl)-N^6-(5-(1-(oxetan-3-ylamino)cyclopropyl)130yridine-2-yl)pyrimidine-4,6-diamine] | †† (††: 0.37-0.39) | 6.00 to 7.00
CS(=O)(=O)c1ccccc1Nc1cc(Nc2ccc(N3CCOCC3)cn2)ncn1 [Compound 42, N^4-(2-(methylsulfonyl)phenyl)-N^6-(5-morpholinopyridin-2-yl) pyrimidine-4,6-diamine] | ††† (†††: >0.39) | 6.00 to 7.00
CS(=O)(=O)c1ccccc1Nc1cc(Nc2ccc(C(=O)NC3CCOC3)cn2)ncn1 (stereo not drawn) [Compound 43, 6-(6-(2-(methylsulfonyl)phenylamino)pyrimidin-4-ylamino)-N-(tetrahydrofuran-3-yl)nicotinamide] | †† (††: 0.37-0.39) | < 6.00
Cc1nccc(Nc2cc(Nc3ccccc3C(N)=O)ncn2)n1 [Compound 48, 2-((6-((2-methylpyrimidin-4-yl)amino)pyrimidin-4-yl)amino) benzamide] | ††† (†††: >0.39) | 6.00 to 7.00
Cc1cccc(Nc2cc(Nc3cccnc3C(N)=O)ncn2)n1 [Compound 50, 3-((6-((6-methylpyridin-2-yl)amino)pyrimidin-4-yl)amino) picolinamide] | ††† (†††: >0.39) | 6.00 to 7.00
Cc1cccc(Nc2cc(Nc3ccncc3C(N)=O)ncn2)n1 [Compound 51, 4-((6-((6-methylpyridin-2-yl)amino)pyrimidin-4-yl)amino) nicotinamide] | ††† (†††: >0.39) | < 6.00
Cc1cccc(Nc2cc(Nc3ncccc3C(N)=O)ncn2)n1 [Compound 52, 2-((6-((6-methylpyridin-2-yl)amino)pyrimidin-4-yl)amino) nicotinamide] | ††† (†††: >0.39) | 6.00 to 7.00
C[C@H]1COCCN1c1ccc(Nc2cc(Nc3ccccc3S(C)(=O)=O)ncn2)nc1 [Compound 54, (S)—N^4-(5-(3-methylmorpholino)144yridine-2-yl)-N^6-(2-(methylsulfonyl)phenyl)pyrimidine-4,6-diamine] | † (†: <0.37) | < 6.00
Cc1ccnc(Nc2cc(Nc3ccccc3C(N)=O)ncn2)n1 [Compound 58, 2-(6-(4-methylpyrimidin-2-ylamino)pyrimidin-4-ylamino)benzamide] | ††† (†††: >0.39) | < 6.00
Cc1cccc(Nc2cc(Nc3cccnc3S(C)(=O)=O)ncn2)n1 [Compound 59, N^4-(6-methylpyridin-2-yl)-N^6-(2-(methylsulfonyl)149yridine-3-yl) pyrimidine-4,6-diamine] | ††† (†††: >0.39) | < 6.00
Cc1cccc(Nc2cc(Nc3ccncc3S(C)(=O)=O)ncn2)n1 [Compound 60, N^4-(6-methylpyridin-2-yl)-N^6-(3-(methylsulfonyl)151yridine-4-yl) pyrimidine-4,6-diamine] | ††† (†††: >0.39) | < 6.00
Cc1cccc(Nc2cc(Nc3cnccc3C(N)=O)ncn2)n1 [Compound 61, 3-((6-((6-methylpyridin-2-yl)amino)pyrimidin-4-yl)amino) isonicotinamide] | ††† (†††: >0.39) | 6.00 to 7.00
COc1cc(Nc2cc(Nc3ncccc3S(C)(=O)=O)ncn2)ncc1NC1(C)COC1 [Compound 62] | †† (††: 0.37-0.39) | < 6.00
Cc1ccnc(Nc2cc(Nc3ccccc3P(C)(C)=O)ncn2)c1 [Compound 63, N^4-(2-(dimethylphosphoryl)phenyl)-N^6-(4-methylpyridin-2-yl) pyrimidine-4,6-diamine] | ††† (†††: >0.39) | 6.00 to 7.00
CS(=O)(=O)c1cccnc1Nc1cc(Nc2ncccc2F)ncn1 [Compound 64, N^4-(3-fluoropyridin-2-yl)-N^6-(3-(methylsulfonyl)154yridine-2-yl) pyrimidine-4,6-diamine] | ††† (†††: >0.39) | < 6.00
COc1ccnc(Nc2cc(Nc3cccc(C)n3)ncn2)c1S(C)(=O)=O [Compound 65, N^4-(4-methoxy-3-(methylsulfonyl)155yridine-2-yl)-N^6-(6-methylpyridin-2-yl)pyrimidine-4,6-diamine] | ††† (†††: >0.39) | < 6.00
Cn1ccc(Nc2cc(Nc3ccccc3S(C)(=O)=O)ncn2)n1 [Compound 66, N^4-(1-methyl-1H-pyrazol-3-yl)-N^6-(2-(methylsulfonyl)phenyl) pyrimidine-4,6-diamine] | ††† (†††: >0.39) | < 6.00
Cn1ccc(Nc2cc(Nc3ccccc3C(N)=O)ncn2)n1 [Compound 67, 2-((6-((1-methyl-1H-pyrazol-3-yl)amino)pyrimidin-4-yl)amino)benzamide] | ††† (†††: >0.39) | < 6.00
Cc1cccnc1Nc1cc(Nc2ccccc2C(N)=O)ncn1 [Compound 68, 2-((6-((3-methylpyridin-2-yl)amino)pyrimidin-4-yl)amino) benzamide] | ††† (†††: >0.39) | < 6.00
CS(=O)(=O)c1ccccc1Nc1cc(NC(=O)C2CC2)ncn1 [Compound 69, N^4-(cyclopropylcarbonyl)-N^6-(2-(methylsulfonyl)phenyl)pyrimidine-4,6-diamine] | ††† (†††: >0.39) | < 6.00
COc1ccc(Nc2cc(NC(=O)C3CC3)ncn2)c(C(N)=O)c1 [Compound 70, 2-((6-(cyclopropanecarboxamido)pyrimidin-4-yl)amino)-5-methoxy benzamide] | ††† (†††: >0.39) | < 6.00
Cc1cccc(Nc2cc(Nc3ncccc3CS(C)(=O)=O)ncn2)n1 [Compound 71, N^4-(6-methylpyridin-2-yl)-N^6-(3-((methylsulfonyl)methyl) 162yridine-2-yl)pyrimidine-4,6-diamine] | ††† (†††: >0.39) | < 6.00
Cn1cc(-c2ccnc(Nc3cc(Nc4ccc(NC5(C)COC5)cn4)ncn3)c2S(C)(=O)=O)cn1 [Compound 72, N^4-(4-(1-methyl-1H-pyrazol-4-yl)-3-(methylsulfonyl)164yridine-2-yl)-N^6-(5-(3-methyloxetan-3-ylamino)164yridine-2-yl)pyrimidine-4,6-diamine] | † (†: <0.37) | < 6.00
CC1(Nc2cnc(Nc3cc(Nc4ncccc4S(C)(=O)=O)ncn3)cn2)COC1 [Compound 74, N^4-(5-(3-methyloxetan-3-ylamino)pyrazin-2-yl)-N^6-(3-(methylsulfonyl)167yridine-2-yl)pyrimidine-4,6-diamine] | ††† (†††: >0.39) | 6.00 to 7.00
COc1ccnc(Nc2cc(Nc3ccc(C(C)N4CC5(COC5)C4)cn3)ncn2)c1S(C)(=O)=O (stereo not drawn) [Compound 76, N^4-(5-(1-(2-oxa-6-azaspiro[3.3]heptan-6-yl)ethyl)170yridine-2-yl)-N^6-(4-methoxy-3-(methylsulfonyl)170yridine-2-yl)pyrimidine-4,6-diamine] | † (†: <0.37) | 6.00 to 7.00
Cc1cc(Nc2cc(Nc3ncccc3S(C)(=O)=O)ncn2)nnc1C(C)N1CC2(COC2)C1 (stereo not drawn) [Compound 77, N^4-(6-(1-(2-oxa-6-azaspiro[3.3]heptan-6-yl)ethyl)-5-methylpyri 172yridi-3-yl)-N^6-(3-(methylsulfonyl)172yridine-2-yl)pyrimidine-4,6-diamine] | †† (††: 0.37-0.39) | < 6.00
CC(c1ccc(Nc2cc(Nc3ncc(C4COC4)cc3S(C)(=O)=O)ncn2)nc1)N1CC2(COC2)C1 (stereo not drawn) [Compound 78, N^4-(5-(1-(2-oxa-6-azaspiro[3.3]heptan-6-yl)ethyl)175yridine-2-yl)-N^6-(3-(methylsulfonyl)-5-(oxetan-3-yl)175yridine-2-yl)pyrimidine-4,6-diamine] | † (†: <0.37) | < 6.00
